The source of these data is patent publication US7297704B2, “Cycloalkyfused indole, benzothiophene, benzofuran and idene derivatives” (Wyeth, priority 2005, dated 2007).

In one series the target is h-5-HT-T (Homo sapiens, UniProt P31645). As to the kind of experiment: h-5-HT-T IC50 (Table 1, no method described).
In series [1] the target is T1, Human 5-HT1A Receptor (Homo sapiens, UniProt P08908).
T1 construct: expressed in transfected cells; host or cells: CHO cells
T1 sequence (P08908 1-422): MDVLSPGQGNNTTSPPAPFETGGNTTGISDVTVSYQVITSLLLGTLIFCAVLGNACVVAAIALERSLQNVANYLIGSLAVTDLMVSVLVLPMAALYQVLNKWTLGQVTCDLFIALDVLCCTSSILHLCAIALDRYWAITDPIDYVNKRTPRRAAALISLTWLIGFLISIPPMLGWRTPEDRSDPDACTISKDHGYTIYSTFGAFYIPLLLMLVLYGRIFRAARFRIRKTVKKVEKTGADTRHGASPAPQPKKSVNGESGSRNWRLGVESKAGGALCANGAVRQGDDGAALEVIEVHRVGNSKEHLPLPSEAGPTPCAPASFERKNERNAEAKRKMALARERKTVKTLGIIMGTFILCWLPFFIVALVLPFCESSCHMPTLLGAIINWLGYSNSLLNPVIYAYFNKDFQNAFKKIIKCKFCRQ
In words: 8-OH-DPAT binding, human 5-HT1A receptor cell line. The settings on record: stably transfected CHO cells, 8-OH-DPAT ligand 1.5 nM; read-out: h5-HT1A Affinity, Ki. An outline of the steps:
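Membranes from CHO cells stably expressing human 5-HT1A, incubated 30 min at room temperature in 50 mM Tris pH 7.5 with 1.5 nM radioligand (8-OH-DPAT). Non-specific binding defined with […]; filtration on PEI-soaked GF/B filters. Single-point inhibition at […], then Ki for actives.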

Series [2] concerns the target T2, cloned human 5-HT1A receptors (Homo sapiens, UniProt P08908).
T2 construct: expressed in transfected cells
T2 sequence (P08908 1-422): T1 sequence (P08908 1-422)
In words: 35S-GTPγS binding assay. It counts as biochemical. The settings on record: for IC50: superscript b, reversal of 8-OH-DPAT effect; for Imax (maximum inhibitory effect): superscript d. The text has this:
The ^35S-GTPγS binding assay similar to that used by Lazareno and Birdsall (Br. J. Pharmacol., 1993, 109: 1120) was used to determine the test compound's ability to affect the binding of ^35S-GTPγS to membranes containing cloned human 5-HT1A receptors. Agonists produce an increase in binding whereas antagonists produce no increase but rather reverse the effects of the standard agonist 8-OH-DPAT. The test compound's maximum stimulatory effect is represented as the Emax, while its potency is defined by the EC50. The test compound's maximum inhibitory effect is represented as the Imax, while its potency is defined by the IC50. […] was used to determine maximum agonist or antagonist response.
(In general: GTPγS resists hydrolysis and so accumulates on activated G proteins.)

Series [3] concerns the target T1, Human 5-HT1A Receptor. In words: cAMP RIA in human 5-HT1A receptor cell line. Format: cell-based. The note with it: CHO cells; for EC50: superscript a, read-out: c-AMP, (EC50)^a; for EC50 / Emax: forskolin stimulated cAMP; for Emax: superscript c, read-out: c-AMP, (Emax)^c. An outline of the steps: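 Stably transfected CHO cells preincubated in Krebs with 500 uM IBMX, then given forskolin (1 uM final) and test compound (0.1 and 1 uM initial screen) for 10 min at 37° C; cAMP measured by RIA as % inhibition. Antagonist mode: 6 concentrations preincubated 20 min before agonist plus forskolin; IC50 for reversal.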

The next series deals with T3, serotonin transporter (Rattus norvegicus, UniProt P31652).
T3 construct: frontal cortical membranes prepared from male S.D. rats; from tissue; host or cells: rat frontal cortex membranes (male Sprague-Dawley)
T3 sequence (P31652 whole entry): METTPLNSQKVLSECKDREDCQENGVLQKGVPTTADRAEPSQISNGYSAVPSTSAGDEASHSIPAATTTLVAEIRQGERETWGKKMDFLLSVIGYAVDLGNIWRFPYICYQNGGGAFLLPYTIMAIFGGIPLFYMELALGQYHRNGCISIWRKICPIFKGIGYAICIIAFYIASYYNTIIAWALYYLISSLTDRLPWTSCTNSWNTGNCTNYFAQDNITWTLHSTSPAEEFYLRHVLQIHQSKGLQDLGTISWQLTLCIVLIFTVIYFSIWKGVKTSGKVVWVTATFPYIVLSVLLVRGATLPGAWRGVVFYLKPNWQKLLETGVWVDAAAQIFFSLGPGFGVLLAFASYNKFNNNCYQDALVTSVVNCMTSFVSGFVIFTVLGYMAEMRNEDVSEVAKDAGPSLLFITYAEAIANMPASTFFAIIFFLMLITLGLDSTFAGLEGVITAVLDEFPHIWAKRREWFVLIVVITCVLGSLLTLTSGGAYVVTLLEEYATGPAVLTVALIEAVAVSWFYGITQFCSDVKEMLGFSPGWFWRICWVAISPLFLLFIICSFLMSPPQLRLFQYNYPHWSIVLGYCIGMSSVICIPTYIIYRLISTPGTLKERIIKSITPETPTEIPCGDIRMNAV
In words: 3H-paroxetine binding to the serotonin transporter, rat frontal cortical membranes. The settings on record: values printed without parentheses, 3H-paroxetine 0.1 nM, read-out: rb-5-HH-T, Ki. An outline of the steps: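 Male Sprague-Dawley rat frontal cortical membranes incubated with 0.1 nM ³H-paroxetine for 60 min at 25 °C, test compound at one to eight concentrations; 10 μM fluoxetine defined specific binding. Filtration separated bound ligand, counted by scintillation. IC50 from nonlinear regression, converted to Ki by Cheng–Prusoff.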

Structures can show the parent of a compound that is named as a salt.

Chain of h-5-HT-T (P31645 whole entry): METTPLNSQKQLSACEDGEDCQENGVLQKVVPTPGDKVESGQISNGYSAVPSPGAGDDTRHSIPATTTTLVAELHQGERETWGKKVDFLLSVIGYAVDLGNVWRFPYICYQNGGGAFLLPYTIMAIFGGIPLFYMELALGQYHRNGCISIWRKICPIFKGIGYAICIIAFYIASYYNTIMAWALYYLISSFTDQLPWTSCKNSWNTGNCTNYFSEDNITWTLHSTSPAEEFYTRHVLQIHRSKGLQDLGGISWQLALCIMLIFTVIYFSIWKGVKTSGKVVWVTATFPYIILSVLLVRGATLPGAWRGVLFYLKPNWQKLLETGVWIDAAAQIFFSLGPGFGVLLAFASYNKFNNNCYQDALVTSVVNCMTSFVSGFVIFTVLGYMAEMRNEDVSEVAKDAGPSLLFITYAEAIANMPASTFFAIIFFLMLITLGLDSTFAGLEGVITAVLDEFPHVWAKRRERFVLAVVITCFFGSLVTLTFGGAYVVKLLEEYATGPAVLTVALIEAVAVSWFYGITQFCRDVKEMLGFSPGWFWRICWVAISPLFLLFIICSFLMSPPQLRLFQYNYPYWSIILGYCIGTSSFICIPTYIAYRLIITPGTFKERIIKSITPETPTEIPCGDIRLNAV

For the compound `Cc1ccc2c3c(ccc2n1)OC[C@H](CNC1CCc2c([nH]c4ccccc24)C1)O3.Cl.Cl` (mixture of isomers) [Example 43, N-{[(2S)-8-methyl-2,3-dihydro[1,4]dioxino[2,3-f]quinolin-2-yl]methyl}-2,3,4,9-tetrahydro-1H-carbazol-2-amine dihydrochloride], the melting point (as a rule, the temperature, or range, at which the solid turns liquid) is 117 to 118 °C (dec.). The midpoint of inhibition against h-5-HT-T, the IC50, lay at 19.3 ± 2.51 nM. Moreover, the Ki (as a rule, a dissociation constant, usually derived from enzyme kinetics or from competition with a known ligand) at Human 5-HT1A Receptor [1] was determined as 432 nM. Further, in series [2], the IC50 (in general, the concentration at which inhibition is half-maximal) is 197 nM and the Imax (maximum inhibitory effect) came to 98.5%. In addition, on Human 5-HT1A Receptor [3], the EC50 (commonly the concentration needed to bring the measured effect to its halfway point) stood at 233 nM and the Emax (in general, the greatest response seen or fitted, relative to the assay's reference) came out at 61%. For the same compound, the Ki at serotonin transporter stood at 45.1 nM.
For the compound `Cc1ccc2c3c(ccc2n1)OC[C@H](CNCC[C@H]1CCc2[nH]c4ccc(F)cc4c2C1)O3` (single isomer, unassigned) [Example 42, dihydrochloride], the IC50 against h-5-HT-T worked out at 2.8 ± 0.12 nM; in series [2], 351 nM. For the same compound, the Ki amounted to 751 nM on Human 5-HT1A Receptor [1] and 58 nM at serotonin transporter. Further, the EC50 in series [2] (superscript a, potency of stimulatory effect) was determined as 63 nM; on Human 5-HT1A Receptor [3] it was 36.4 nM. The Emax in series [2] (superscript c, maximum stimulatory effect) turned out to be 39%; on Human 5-HT1A Receptor [3] it was 87%. Besides, in series [2], the Imax (maximum inhibitory effect) worked out at 71%.
As for `Cc1ccc2c3c(ccc2n1)OC[C@H](CN[C@H]1CCc2c([nH]c4ccccc24)C1)O3` (single isomer, unassigned) [Example 45, dihydrochloride], the IC50 against h-5-HT-T came to 38.95 ± 0.18 nM; in series [2], 461 nM. Besides, the Ki at Human 5-HT1A Receptor [1] worked out at 365 nM; on serotonin transporter, 34.3 nM. Besides, at Human 5-HT1A Receptor [3], the EC50 worked out at 157 nM. Also, the Emax at Human 5-HT1A Receptor [3] came to 59%.
Take `CCN(CC1CCc2[nH]c3ccc(F)cc3c2C1)C[C@H]1COc2ccc3nc(C)ccc3c2O1` (stereo partly drawn) [Example 50, N-[(6-Fluoro-2,3,4,9-tetrahydro-1H-carbazol-3-yl)methyl]-N-{[(2S)-8-methyl-2,3-dihydro[1,4]dioxino[2,3-f]quinolin-2-yl]methyl}ethanamine dihydrochloride dihydrate]: the IC50 was determined as 5.73 ± 0.33 nM against h-5-HT-T; 179 nM in series [2]; 137 nM at Human 5-HT1A Receptor [3] (superscript b, reversal of agonist activity, read-out: c-AMP, (IC50)^b). The Ki at Human 5-HT1A Receptor [1] worked out at 226 nM; at serotonin transporter it was 26.9 nM. Further, in series [2], the Imax (maximum inhibitory effect) was 100%.
In the case of `Cc1ccc2c3c(ccc2n1)OC[C@H](CN(CC1CC1)CC1CCc2[nH]c4ccc(F)cc4c2C1)O3` (stereo partly drawn) [Example 52, (Cyclopropylmethyl)[(6-fluoro-2,3,4,9-tetrahydro-1H-carbazol-3-yl)methyl]{[(2S)-8-methyl-2,3-dihydro[1,4]dioxino[2,3-f]quinolin-2-yl]methyl}amine dihydrochloride dihydrate], at h-5-HT-T, inhibition was half-maximal at 19.5 ± 0.28 nM (IC50). The Ki at Human 5-HT1A Receptor [1] was 936 nM. For the same compound, in series [2], the IC50 is 1580 nM and the Imax (maximum inhibitory effect) is 100%. Moreover, at Human 5-HT1A Receptor [3], the EC50 turned out to be 312 nM and the Emax came to 70%. In addition, the Ki on serotonin transporter is 670 nM.
In the case of `CCCN(C[C@@H]1CCc2[nH]c3ccc(F)cc3c2C1)C[C@H]1COc2ccc3nc(C)ccc3c2O1` [Example 54, N-{[(3R)-6-Fluoro-2,3,4,9-tetrahydro-1H-carbazol-3-yl]methyl}-N-{[(2S)-8-methyl-2,3-dihydro[1,4]dioxino[2,3-f]quinolin-2-yl]methyl}propan-1-amine dihydrochloride dihydrate], the values for the IC50 (at h-5-HT-T; in series [2]) were 16.6 ± 0.85 nM and 581 nM, respectively. Moreover, the results for the Ki on Human 5-HT1A Receptor [1] and at serotonin transporter were 617 nM and 96.5 nM, respectively. This compound also returned an Imax (maximum inhibitory effect) in series [2] of 63%. The EC50 on Human 5-HT1A Receptor [3] was 177 nM. Moreover, at Human 5-HT1A Receptor [3], the Emax came to 48%.
For the compound `Cc1ccc2c3c(ccc2n1)OC[C@H](CN(CC1CC1)C[C@@H]1CCc2[nH]c4ccc(F)cc4c2C1)O3` [Example 55, (Cyclopropylmethyl){[(3R)-6-fluoro-2,3,4,9-tetrahydro-1H-carbazol-3-yl]methyl}{[(2S)-8-methyl-2,3-dihydro[1,4]dioxino[2,3-f]quinolin-2-yl]methyl}amine dihydrochloride dihydrate], on h-5-HT-T, the midpoint of inhibition, the IC50, lay at 8.5 ± 0.18 nM. In addition, the Ki at Human 5-HT1A Receptor [1] worked out at 850 nM. In series [2], the IC50 turned out to be 1130 nM and the Imax (maximum inhibitory effect) stood at 74%. In addition, at Human 5-HT1A Receptor [3], the EC50 is 211 nM and the Emax turned out to be 67%. On serotonin transporter, the inhibition constant Ki amounted to 110 nM.
Consider `Cc1ccc2c3c(ccc2n1)OC[C@H](CN(C[C@@H]1CCc2[nH]c4ccc(F)cc4c2C1)C1CCC1)O3` [Example 56, N-{[(3R)-6-Fluoro-2,3,4,9-tetrahydro-1H-carbazol-3-yl]methyl}-N-{[(2S)-8-methyl-2,3-dihydro[1,4]dioxino[2,3-f]quinolin-2-yl]methyl}cyclobutanamine dihydrochloride dihydrate], for which the IC50 against h-5-HT-T came out at 18.1 ± 0.39 nM; in series [2], 3100 nM. For the same compound, the Ki on Human 5-HT1A Receptor [1] was determined as 1730 nM; at serotonin transporter, 127 nM. In addition, the EC50 at Human 5-HT1A Receptor [3] was found to be 154 nM. Further, the Emax on Human 5-HT1A Receptor [3] turned out to be 69%.
